What was measured:
Details in all cases: 72 h
Caco-2 [1] = assay: cell viability relative to DMSO; higher = less toxic
Calu-3 [2] = assay: as above
HepG2 [3] = assay: as above
U2OS [4] = assay: as above
Vero E6 [5] = assay: as above
Caco-2 [6] = assay: relative viability EC50 (midpoint between 100% and the lowest measured viability); higher = less toxic
Calu-3 [7] = assay: as above
HepG2 [8] = assay: as above
U2OS [9] = assay: as above
Vero E6 [10] = assay: as above
Caco-2 [11] = assay: drug sensitivity score (DSS) for viability; higher = more toxic; extreme values may be limits of the assay
Calu-3 [12] = assay: as above
HepG2 [13] = assay: as above
U2OS [14] = assay: as above
Vero E6 [15] = assay: as above

| SMILES | cell viability (Caco-2 [1]; 1 nM) [%] | cell viability (Caco-2 [1]; 10 nM) [%] | cell viability (Caco-2 [1]; 100 nM) [%] | cell viability (Caco-2 [1]; 1000 nM) [%] | cell viability (Caco-2 [1]; 10000 nM) [%] | cell viability (Calu-3 [2]; 1 nM) [%] | cell viability (Calu-3 [2]; 10 nM) [%] | cell viability (Calu-3 [2]; 100 nM) [%] | cell viability (Calu-3 [2]; 1000 nM) [%] | cell viability (Calu-3 [2]; 10000 nM) [%] | cell viability (HepG2 [3]; 1 nM) [%] | cell viability (HepG2 [3]; 10 nM) [%] | cell viability (HepG2 [3]; 100 nM) [%] | cell viability (HepG2 [3]; 1000 nM) [%] | cell viability (HepG2 [3]; 10000 nM) [%] | cell viability (U2OS [4]; 1 nM) [%] | cell viability (U2OS [4]; 10 nM) [%] | cell viability (U2OS [4]; 100 nM) [%] | cell viability (U2OS [4]; 1000 nM) [%] | cell viability (U2OS [4]; 10000 nM) [%] | cell viability (Vero E6 [5]; 1 nM) [%] | cell viability (Vero E6 [5]; 10 nM) [%] | cell viability (Vero E6 [5]; 100 nM) [%] | cell viability (Vero E6 [5]; 1000 nM) [%] | cell viability (Vero E6 [5]; 10000 nM) [%] | relative viability EC50 (Caco-2 [6]) [µM] | relative viability EC50 (Calu-3 [7]) [µM] | relative viability EC50 (HepG2 [8]) [µM] | relative viability EC50 (U2OS [9]) [µM] | relative viability EC50 (Vero E6 [10]) [µM] | drug sensitivity score (Caco-2 [11]) | drug sensitivity score (Calu-3 [12]) | drug sensitivity score (HepG2 [13]) | drug sensitivity score (U2OS [14]) | drug sensitivity score (Vero E6 [15]) |
| --- | --- | --- | --- | --- | --- | --- | --- | --- | --- | --- | --- | --- | --- | --- | --- | --- | --- | --- | --- | --- | --- | --- | --- | --- | --- | --- | --- | --- | --- | --- | --- | --- | --- | --- | --- |
| O=C(Cn1ccnc1[N+](=O)[O-])NCCO [etanidazole] | 100 | 94.1 | 95.9 | 91.5 | 92.7 | 98.8 | 92.4 | 94 | 98.1 | 107 | 98.7 | 106 | 92.3 | 101 | 88.8 | 101 | 97.1 | 102 | 99.1 | 102 | 103 | 104 | 106 | 101 | 97.7 | > 10 | > 10 | > 10 | > 10 | > 10 | 0 | 0 | 0 | 0 | 0 |
| C[N+](C)(C)CCCCCCCCCC[N+](C)(C)C [decamethonium] | 98.1 | 93.1 | 99.1 | 99.9 | 97.4 | 88.3 | 114 | 95.6 | 108 | 89.3 | 102 | 99.2 | 96.2 | 93.2 | 104 | 98.3 | 99.8 | 94 | 97.3 | 95.5 | 101 | 98 | 102 | 95.7 | 99.7 | > 10 | > 10 | > 10 | > 10 | > 10 | 0 | 0 | 0 | 0 | 0 |
| CC[C@@H](C)c1ccc(NC(=O)Cn2cnc3c2c(=O)n(C)c(=O)n3C)cc1 (racemic) | 98.5 | 90.1 | 89.8 | 97.3 | 92.5 | 99.4 | 100 | 98.6 | 99 | 95.6 | 95.9 | 100 | 96.6 | 100 | 93.4 | 98.6 | 97.1 | 98.3 | 96.9 | 98.6 | 96 | 98.3 | 92.6 | 94 | 106 | > 10 | > 10 | > 10 | > 10 | > 10 | 0 | 0 | 0 | 0 | 0 |
| CC[C@@H](CO)NCCN[C@@H](CC)CO [ethambutol] | 99.1 | 92.3 | 97.6 | 102 | 104 | 98.9 | 88.7 | 96 | 90.4 | 96.7 | 93.3 | 108 | 90.3 | 95.2 | 98.7 | 103 | 98 | 103 | 96.5 | 99.3 | 92.3 | 98.2 | 90.8 | 99.1 | 102 | > 10 | > 10 | > 10 | > 10 | > 10 | 0 | 0 | 0 | 0 | 0 |
| Cc1c(N(C)C)c(=O)n(-c2ccccc2)n1C [amidopyrine] | 102 | 106 | 97.9 | 110 | 84 | 105 | 109 | 99.5 | 112 | 103 | 94.7 | 92.2 | 112 | 106 | 99.7 | 95.1 | 101 | 93.2 | 99.2 | 96.4 | 97.8 | 96.4 | 104 | 97.7 | 89.2 | > 10 | > 10 | > 10 | > 10 | > 10 | 0.1 | 0 | 0 | 0 | 0 |
| COCCCC/C(=N\OCCN)c1ccc(C(F)(F)F)cc1 [fluvoxamine] | 124 | 109 | 84.3 | 80.6 | 94.1 | 102 | 109 | 95.6 | 96.5 | 93.7 | 99.3 | 93.5 | 100 | 105 | 100 | 104 | 97.3 | 98 | 96.4 | 98.5 | 91.6 | 103 | 98.1 | 101 | 88 | > 10 | > 10 | > 10 | > 10 | > 10 | 4 | 0 | 0 | 0 | 0 |
| CN1C/C=C/CCOc2cccc(c2)-c2ccnc(n2)Nc2cccc(c2)C1 [TG-02] | 89.8 | 88.2 | 70.4 | 28.4 | 38.9 | 97.1 | 97.7 | 87.7 | 43.4 | 51.8 | 111 | 104 | 79.2 | 9.1 | 3.2 | 102 | 101 | 86 | 2.5 | 1.8 | 99.4 | 97.8 | 90 | 13.6 | 5.6 | 0.105 | 0.167 | 0.207 | 0.204 | 0.297 | 16.2 | 12.4 | 19.3 | 20 | 17.1 |
